Results taken from patent US20250154169A1, “COMPOUNDS AND METHODS FOR MODULATING SPLICING” (REMIX THERAPEUTICS INC., priority 2021, published 2025).
Values joined by “and” are separate entries in the source; they are usually repeats but may differ in a detail not shown here. Identical values can stand only once.

Assays:
[1] = test system: MYB; test: Protein abundance, HiBit-assay system (Promega), MYB; type: cell-based; settings: Table 6; HiBiT-modified K562 cells, 24 hours
Source text: In some embodiments, a compound of Formula (I) or (II) or a pharmaceutically acceptable salt thereof, e.g., as described herein, modulates the expression of a target protein (e.g., HTT or MYB) in a reference cell or sample. In an embodiment, a compound of Formula (I) or (II) or a pharmaceutically acceptable salt thereof, e.g., as described herein, increases the expression of a target protein (e.g., HTT or MYB) in a reference cell or sample. In an embodiment, a compound of Formula (I) or (II) or a pharmaceutically acceptable salt thereof, e.g., as described herein, decreases the expression of a target protein (e.g., HTT or MYB) in a reference cell or sample. The effect of an exemplary compound of Formula (I) or (II) on protein abundance may be measured using a standard assay for measuring protein abundance, such as the HiBit-assay system (Promega). In this assay, percent response for each respective cell line may be as calculated at each compound concentration as follows: % response=100*(S−PC)/(NC−PC). For the normalized response at each concentration, a four-parameter logistical regression may be fit to the data and the response may be interpolated at the 50% value to determine a concentration for protein abundance at 50% (IC50) an untreated control. In an embodiment, a compound of Formula (I) or (II) or a pharmaceutically acceptable salt thereof, e.g., as described herein, has a protein abundance response less than 100 nM. In an embodiment, a compound of Formula (I) or (II) or a pharmaceutically acceptable salt thereof, e.g., as described herein, has a protein abundance response between 100-1000 nM. In an embodiment, a compound of Formula (I) or (II) or a pharmaceutically acceptable salt thereof, e.g., as described herein, has a protein abundance response greater than 1000 nM. In an embodiment, a compound of Formula (I) or (II) or a pharmaceutically acceptable salt thereof, e.g., as described herein, has a protein abundance response greater than 10 uM. In an embodiment, a compound of Formula (I) or (II) or a pharmaceutically acceptable salt thereof, e.g., as described herein, modulates the protein abundance of a target protein by about 1%, 5%, 10%, 15%, 20%, 25%, 30%, 35%, 40%, 45%, 50%, 55%, 60%, 65%, 70%, 75%, 80%, 85%, 90%, 95%, 99% or more, e.g., compared with a reference compound.

[2] = test system: K562 cells; test: Cell Titer Glo 2.0 cell viability assay, K562; type: cell-based; settings: Homo sapiens, 72 hours incubation
Experimental: Compounds described herein were screened for toxicity in K562 (human chronic myelogenous leukemia) and SH-SY5Y (human neuroblastoma) cells using a Cell Titer Glo 2.0 assay.
• Promega CellTiter-Glo® 2.0 Cell Viability Assay (cat #G9241) • Corning 384-well TC-treated microplates (cat #3570)
Cells were plated at 500 cells/well (K562 cells) in 45 μL of IMDM supplemented with 10% FBS in a 384-well opaque plate. Wells containing only medium were used as a blank control. Test compounds (e.g., compounds of Formula (I) or (II)) were first serially diluted in DMSO then diluted 1:100 with EIDM+10% FBS. The final concentration of DMSO was 0.1% in each well. The cells were incubated for 72 hours at 37° C. and 5% CO2 before assaying with Cell Titer Glo 2.0 reagent.

[3] = test system: SMN2 mRNA; test: Splicing RT-qPCR gene panel, SMN2 canonical junction (CJ) mRNA; type: cell-based, human; settings: Homo sapiens, Tables 4A/4B, read-out: SMN2 (IC50, decrease in CJ mRNA, gene panel)
In short: (§1)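 Read-out: RT-qPCR of the canonical exon-exon junction transcript, ΔCt vs housekeeping gene, normalized to DMSO, RQ = 2^(−ΔΔCt), converted to percentage response. Cells, A673 or K562, were dosed 24 h at 37 °C across 11 3-fold dilutions from 10 uM.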

[4] = test system: HTT mRNA; test: Splicing RT-qPCR gene panel, HTT canonical junction (CJ) mRNA; type: cell-based, human; settings: Homo sapiens, Tables 4A/4B, read-out: HTT (IC50, decrease in CJ mRNA, gene panel)
In short: as §1

[5] = test system: Target C mRNA; test: Splicing RT-qPCR gene panel, Target C canonical junction (CJ) mRNA; type: cell-based, human; settings: Homo sapiens, Tables 4A/4B, read-out: Target C (IC50, decrease in CJ mRNA, gene panel)
In short: as §1

[6] = test system: MYB mRNA; test: Splicing RT-qPCR assay, MYB canonical (CJ) and alternative (AJ) junction mRNA; type: cell-based, human; settings: Homo sapiens, Tables 4A/4B; canonical junction qPCR panel; read-out: MYB (IC50, decrease in CJ mRNA, gene panel)
In short: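 One-step RT-qPCR on cell lysates, CJ and AJ isoforms quantified; housekeeping normalization GAPDH/GUSB (K562) or PPIA (A673). Cells: A673 in DMEM/10% FBS or K562 in IMDM/10% FBS. Compounds 11-pt 3-fold, top 10 uM, 24 h, 37 °C, 5% CO2.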

Cc1cn2cc(NC(=O)c3ccc(C4CCNCC4)c4oc(C)nc34)cc(F)c2n1 [Compound 187]
IC50 [1]: 100 to 1000 nM and < 100 nM
GI50 [2]: 100 to 1000 nM
IC50 [3]: < 100 nM
IC50 [4]: 100 to 1000 nM
IC50 [5]: 1000 to 10000 nM
IC50 [6]: 100 to 1000 nM
